We go through 31 compounds from patent publication US7547804B2, “Compounds, compositions, and methods employing same” (Myriad Genetics, Inc., priority 2002, dated 2009).

The test system of the first test is LNCaP cell lines. In words: WST-1 Cell Proliferation and Viability Assay. In kind it is cell-based. The conditions noted are these: Homo sapiens; LNCaP cells, compound incubation 18-72 hours. As for the experimental part:
WST-1 Cell Proliferation and Viability Assay
Cell proliferation and cell viability was assessed using the tetrazolium salt WST-1 (Roche Applied Science, Indianapolis Ind.). The assay is based on the cleavage of WST-1 (light red) by mitochondrial dehydrogenase causing the formation of formazan (dark red), which can be measured on an optical density (O.D.) reader. LNCaP cell lines were plated in 96 well tissue culture plates (Corning Costar, N.Y.) at a density of 5000 cells/well in 150 μl complete media phenol-red free (RPMI-1640 [Invitrogen, Carlsbad Calif.] and 10% fetal calf serum). This plate is termed the assay plate. After the cells are plated, they are then incubated overnight at 37 degrees Celsius in a humidified chamber containing 5% CO2 (incubator).
Compounds are added to the assay plate in 50 μl of complete media and 0.4% DMSO (v:v) making the final DMSO concentration 0.1%. The assay plate is then returned to the incubator for 18-72 hours. WST-1 reagent is then added (20 μl/well) and the plate is placed on an ELISA plate shaker for 30 minutes at room temperature. Plates are then transferred back to the incubator for an additional 3 hours. Plates are then read on a 96 well plate O.D. reader at A490-A650.
In the case of `O=C(Nc1ccccc1OC1CCCC[C@H]1c1ccccc1)c1cc(Cl)ccc1O` (stereo partly shown) [Compound 126], the midpoint of the response, the EC50, lay at 6 µM.
As for `CCN(CC)c1ccc(NC(=O)c2cc(Cl)ccc2O)c(OCCc2cccc(C(F)(F)F)c2)c1` [Compound 360], the EC50 – broadly, the midpoint of the concentration-response curve – turned out to be 2.4 µM.
On the same count and under the same terms, the figure for `Cc1ccc(O)c(C(=O)NCc2cccc(-c3ccccc3)c2)c1` [Compound 206] is 34 µM; for `Cc1cc(C)c(CCOc2ccc(C(F)(F)F)cc2NC(=O)c2cc(Cl)ccc2O)c(C)c1` [Compound 135] it is 0.8 µM.
Regarding `COc1ccccc1CCOc1cccc(NC(=O)c2cc(Br)ccc2O)c1` [Compound 194], the EC50 amounted to 9 µM.
Compound `COCCN(C)c1ccc(NC(=O)c2cc(Cl)ccc2O)cc1C(F)(F)F` [Compound 365] showed an EC50 of 2 µM.
Turning to `O=C(Nc1cc(Cl)cc(Cl)c1OCCc1ccc(CC(F)(F)F)cc1)c1cc(Cl)ccc1O` [Compound 163], the response was half-maximal at 2 µM (EC50).
The compound `O=C(Nc1cccc(CNc2ccc(Cl)cc2)c1)c1cc(Cl)ccc1O` [Compound 74] returned an EC50 of 9 µM.
`COc1ccc(O)c(C(=O)Nc2cccc(OCCc3ccccc3)c2)c1` [Compound 187] had an EC50 of 30 µM.
The same measure, in the same setting: the figure for `Nc1cc(Cl)cc(C(=O)Nc2cc(Cl)ccc2OCCc2ccccc2)c1O` [Compound 330] is 19.7 µM; for `O=C(Nc1cc(C(F)(F)F)cc(C(F)(F)F)c1)c1cc(Cl)ccc1O` [Compound 169] it is 2 µM.
Consider `CCC(COc1cccc(NC(=O)c2cc(Cl)ccc2O)c1)c1ccccc1` (stereo not shown) [Compound 42], for which the concentration for a half-maximal effect (EC50) is 3 µM.
In turn, `COc1ccc(OCCc2ccccc2)c(NC(=O)c2cc(Cl)ccc2O)c1` [Compound 147] gave an EC50 of 6 µM.
For `CCC(COc1ccc(Cl)cc1NC(=O)c1cc(Cl)ccc1O)c1ccccc1` (stereo not shown) [Compound 103], the EC50 came to 2 µM.
Same read-out and setting: then `O=C(Nc1cc(C(F)(F)F)ccc1OCc1cccc(OC(F)(F)F)c1)c1cc(Cl)ccc1O` [Compound 334], with 9 µM; and `COc1ccc(-c2ccc(O)c(C(=O)Nc3cccc(OCCc4ccccc4OC)c3)c2)cc1` [Compound 342], with 10 µM.
`O=C(Nc1cc(C(F)(F)F)ccc1OCc1ccccc1)c1cc(Cl)ccc1O` [Compound 266] gave an EC50 of 0.9 µM.
As to `O=C(Nc1cccc(OCCc2ccccc2)c1)c1ccccc1O` [Compound 197], a half-maximal effect (EC50) was put at 26 µM.
The same measure, in the same setting: then `COc1ccccc1CCOc1cccc(NC(=O)c2cc(-c3ccccc3Oc3ccccc3)ccc2O)c1` [Compound 344], with 16 µM; and `O=C(Nc1ccc(Cl)cc1OCCc1ccc(Cl)cc1)c1cc(Cl)ccc1O` [Compound 250], with 2 µM.
In turn, `O=C(Nc1cccc(OC2CCCCC2c2ccc(Cl)cc2)c1)c1cc(Cl)ccc1O` (stereo not shown) [Compound 282] showed an EC50 of 4 µM.
On the same count and under the same terms, then `O=C(Nc1cccc(NCc2ccccc2)c1)c1cc(Cl)ccc1O` [Compound 28], with 31 µM.
In the case of `O=C(Nc1cc(C(F)(F)F)ccc1OCCc1ccccc1C(F)(F)F)c1cc(Cl)ccc1O` [Compound 134], the EC50 came out at 0.9 µM.
Turning to `O=C(Nc1cccc(OCCc2ccccc2C(F)(F)F)c1)c1cc(Cl)ccc1O` [Compound 138], the EC50 was found to be 6 µM.
The compound `COc1ccccc1CCNc1ccc(C(F)(F)F)cc1NC(=O)c1cc(Cl)ccc1O` [Compound 274] yielded an EC50 of 4 µM.
`O=C(Nc1cc(C(F)(F)F)ccc1OCCc1ccsc1)c1cc(Cl)ccc1O` [Compound 245] returned an EC50 of 0.9 µM.

The same test, now with this note: Homo sapiens; LNCaP cells; flagged "Estimated": based on actual data at different concentrations.
Turning to `O=C(Nc1cccc(OCCc2ccccc2)c1)c1cccc(O)c1` [Compound 227], the EC50 is 22 µM.
For `O=C(Nc1cc(C(F)(F)F)ccc1N1CCCC(C(=O)O)C1)c1cc(Cl)ccc1O` (stereo not shown) [Compound 316], the EC50 was 40 µM.
`Cc1ccc(CNC(=O)c2cc(Cl)ccc2O)cc1-c1ccccc1` [Compound 291]: the EC50 is 30 µM.
As to `O=C(NCc1cc(C(F)(F)F)ccc1Cl)c1cc(Cl)ccc1O` [Compound 318], the EC50 is 40 µM.
Take `O=C(NCc1cccc(-c2ccccc2)c1)c1cc(Cl)ccc1O` [Compound 238]: the EC50 is 30 µM.
